Data: ChEMBL document CHEMBL4419180, “Compositions and methods for treating g protein coupled receptor mediated conditions” (2018)
The source made the active and inactive calls. The calls are words filed in the database; no cut-off is given here. Non-standard residues stand in square brackets, D forms with d. Residues, ends and D or L forms follow the SMILES beside them. *: point of attachment. Boc = CC(C)(C)OC(=O)*; OBn = c1ccc(CO*)cc1; For = O=C*

Assays:
[1] = molecular target: Mas-related G-protein coupled receptor member X4 (Homo sapiens) (UniProt Q96LA9); assay: Inverse agonist activity at recombinant human MrgprX4 expressed in HEK293 cells assessed as reduction in inositol phosphate accumulation incubated for 1 hr at 37 degC followed by incubation for 30 mins at room temperature by HTRF assay relative to baseline; format: functional, cell-based
Sequence of Mas-related G-protein coupled receptor member X4 (Homo sapiens) (Q96LA9 whole entry): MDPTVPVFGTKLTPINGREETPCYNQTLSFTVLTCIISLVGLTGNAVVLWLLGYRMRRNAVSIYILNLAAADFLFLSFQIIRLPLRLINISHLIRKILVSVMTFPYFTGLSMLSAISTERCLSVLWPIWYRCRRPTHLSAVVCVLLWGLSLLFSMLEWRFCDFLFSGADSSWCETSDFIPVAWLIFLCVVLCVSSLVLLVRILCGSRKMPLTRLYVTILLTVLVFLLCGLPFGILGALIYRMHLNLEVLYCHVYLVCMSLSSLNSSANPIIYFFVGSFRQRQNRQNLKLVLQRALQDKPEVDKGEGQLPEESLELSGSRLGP

[2] = molecular target: Mas-related G-protein coupled receptor member X4 (Homo sapiens) (UniProt Q96LA9); assay: Antagonist activity at recombinant human MrgprX4 expressed in HEK293 cells assessed as blockade of bilirubin-induced inositol phosphate accumulation incubated for 1 hr at 37 degC followed by incubation for 30 mins at room temperature before bilirubin addition by HTRF assay relative to control; format: functional, cell-based
[3] = system: Mus musculus; assay: Suppression of ANIT-induced cholestatic liver injury in mouse assessed as effect on ALP level at 1 mg/kg, ip; format: functional, organism-based
[4] = system: Mus musculus; assay: Suppression of ANIT-induced cholestatic liver injury in mouse assessed as effect on total bilirubin at 1 mg/kg, ip; format: functional, organism-based
[5] = system: Mus musculus; assay: Suppression of bilirubin-induced pruritus in mouse assessed as reduction in scratching bouts in 30 mins at 0.25 mg/kg co-injected with bilirubin; format: functional, organism-based
[6] = system: Mus musculus; assay: Suppression of ANIT-induced cholestatic liver injury in mouse assessed as effect on ALT level at 1 mg/kg, ip; format: functional, organism-based
[7] = system: Mus musculus; assay: Suppression of ANIT-induced cholestatic pruritus in mouse assessed as reduction in scratching bouts in 30 mins at 1 mg/kg, ip 30 mins before behavioral analysis; format: functional, organism-based
[8] = system: Mus musculus; assay: Suppression of chloroquine-induced pruritus in mouse assessed as reduction in scratching bouts in 30 mins at 1 mg/kg co-injected with chloroquine; format: functional, organism-based
[9] = system: Mus musculus; assay: Suppression of ANIT-induced cholestatic liver injury in mouse assessed as effect on AST level at 1 mg/kg, ip; format: functional, organism-based

SMILES | fold change (FC) [1] | inhibition [2] [%] | other results
CC(C)(C)OC(=O)N[C@@H](CCC(N)=O)C(=O)N[C@H](Cc1cn(C=O)c2ccccc12)C(=O)N[C@@H](Cc1ccccc1)C(=O)OCc1ccccc1 (Boc-Gln-[dW](For)-Phe-OBn) | – | – | Activity [3]: inactive; Activity [4]: inactive; Activity [5]: Active; Activity [6]: inactive; Activity [7]: Active; Activity [8]: inactive; Activity [9]: inactive
O=C(NCc1cc2ccccc2[nH]1)c1cc(-c2ccccn2)nc2ccc(Br)cc12 | 2 to 3 | 85 | –
Cc1c(C(=O)NCc2ccccc2C(F)(F)F)ncn1Cc1ccc(Cl)cc1 | 3 | 85 | –

Further lines, with some results ahead:

fold change (FC) [1] | inhibition [2] [%] | SMILES | other results
3 | 85 | Cc1nc(-c2ccnn2Cc2ccc(Cl)cc2)[nH]c1-c1ccccc1 | –
2 to 3 | 70 to 85 | Nc1nc2ccccc2n1CCOc1ccccc1Cl | –
